Data: patent US9261498B2, “Biomarker for sensitivity to mTOR inhibitor therapy in kidney cancer” (The Regents of the University of California, priority 2005, dated 2016)

System: VEGF
Assay: VEGF ELISA of conditioned media
Type: cell-based, human
Conditions: VHL knockdown cells, 10 nM CCI-779, 36 hours, normalized to total cellular protein
Method: FIGS. 2A-2C. Effects of VHL knockdown on angiogenesis. (a) Microvessel density was quantified by CD-31 immunolabeling (arrows) in the xenograft tumors, and difference between CCI-779 treated (+) and vehicle (−) treated mice quantified (n=6 in each group). P<0.0033 for microvessel density counts in VHL shRNA compared to vector only (see blue bars). (b) Similar number of cells were plated and maintained in 10% serum rich media, in the presence (+) or absence (−) of 10 nM CCI-779. Thirty-six hours later, conditioned media was analyzed by anti-VEGF ELISA and cell extracts prepared for protein quantification. VEGF values were normalized to total cellular protein. Error bars equal one standard deviation (n=3). […] Bound antibody was detected using enhanced chemiluminescence (ECL, Amersham). For VEGF ELISA quantification, cells were plated in 6 well plates (1×10^5 per well). […] Thirty-six hours later, VEGF ELISA (R&D Systems) was performed according to the manufacturer's instructions, using a Fisher Plate reader. […] Bound antibody was detected using enhanced chemiluminescence (ECL, Amersham). For VEGF ELISA quantification, cells were plated in 6 well plates (1×10^5 per well). […] Thirty-six hours later, VEGF ELISA (R&D Systems) was performed according to the manufacturer's instructions, using a Fisher Plate reader. […]

CO[C@H]1C[C@@H]2CC[C@@H](C)[C@@](O)(O2)C(=O)C(=O)N2CCCC[C@H]2C(=O)O[C@H]([C@H](C)C[C@@H]2CC[C@@H](OC(=O)C(C)(CO)CO)[C@H](OC)C2)CC(=O)[C@H](C)/C=C(\C)[C@@H](O)[C@@H](OC)C(=O)[C@H](C)C[C@H](C)/C=C/C=C/C=C/1C [CCI-779]
reduction of secreted VEGF levels: 2 fold
